Data taken from patent publication US6979470B2 (priority 2001, dated 2005).
pIC50: −log10 of the molar value.

Experiments:
[1] = molecular target: T1, COX-2 (Mus musculus, UniProt Q05769); assay: cell-based; assay type: cell-based
T1 construct: LPS, which was used to induce the expression of COX-2 in the RAW 264.7 cells; host or cells: RAW 264.7
T1 sequence (Q05769 18-604): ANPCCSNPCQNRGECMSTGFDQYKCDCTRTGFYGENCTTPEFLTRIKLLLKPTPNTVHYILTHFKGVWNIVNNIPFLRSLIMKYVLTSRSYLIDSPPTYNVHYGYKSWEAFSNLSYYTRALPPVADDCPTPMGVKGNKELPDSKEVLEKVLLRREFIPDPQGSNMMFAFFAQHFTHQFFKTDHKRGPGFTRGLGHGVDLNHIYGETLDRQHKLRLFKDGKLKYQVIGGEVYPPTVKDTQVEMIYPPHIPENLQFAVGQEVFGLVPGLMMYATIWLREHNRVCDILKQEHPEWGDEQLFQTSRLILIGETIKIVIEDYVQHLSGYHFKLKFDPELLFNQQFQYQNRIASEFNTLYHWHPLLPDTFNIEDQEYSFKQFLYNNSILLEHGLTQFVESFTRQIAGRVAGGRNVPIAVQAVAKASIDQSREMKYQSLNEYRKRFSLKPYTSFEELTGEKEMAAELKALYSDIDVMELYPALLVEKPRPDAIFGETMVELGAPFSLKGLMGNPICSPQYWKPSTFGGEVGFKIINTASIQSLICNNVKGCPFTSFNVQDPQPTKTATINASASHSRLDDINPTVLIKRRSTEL
Description: On day one of the experiment, the log phase 264.7 cells were plated at 8×10^4 cells per well in 0.2 mL growth medium per well in a 96-well tissue culture plate. After 6 to 8 hours post plating, 100 μL of growth medium from each well was removed and replaced with 100 μL fresh medium. […] It was mixed until dissolved and stored at 4° C. Immediately before use, it was thawed at room temperature or in a 37° C. water bath. A new solution was prepared every 60 days.
On day two of the experiment, the test materials were prepared as 1000× stock in DMSO. For example, if the final concentration of the test material was to be 10 μg/mL, a 10 mg/mL stock was prepared by dissolving 10 mg of the test material in 1 mL of DMSO. Fresh test materials were prepared on day 2 of the experiment. In 1.7 mL microfuge tubes, 1 mL DMEM without FBS was added to obtain test concentrations of 0.05, 0.10, 0.5, and 1.0 μg/mL. 2 μL of the 1000×DMSO stock of the test material was added to the 1 mL of medium without FBS. The tube contained the final concentration of the test material was concentrated 2-fold. The tube was placed in incubator for 10 minutes to equilibrate.
One-hundred mL of medium was removed from each well of the cell plates prepared on day one. One-hundred mL of equilibrated 2× final concentration the test compounds were added to cells and incubated for 90 minutes. […]

[2] = system: COX-2; conditions: reported, specificity for COX-2 over COX-1; cited from earlier work

SMILES | SPECIFICIY COX-1/COX-2 ([1]; COX-1 IC50 (enzyme) / COX-2 IC50 (RAW 264.7)) | pIC50 ([1]; second compound alone, PGE2 production by COX-2, RAW 264.7 cells, 24 h LPS) | COX-2 specificity [2]
C=C1CC[C@@H]2[C@](C)(CO)[C@H](O)CC[C@@]2(C)[C@@H]1C/C=C1/C(=O)OC[C@H]1O [Andrographolide] | 5.2 | 3.12 | 
CC(=O)Oc1ccccc1C(=O)O [aspirin] |  |  | 0.6
